Assay: Ready-to-use formulation stability at 25° C./60% RH, 5 mg/mL (R,R)-pyrodach-2 in 10 mM Bicarbonate Buffer at pH 8.6, 10 mL vials
Type: physicochemical

## O=P1(O)OP(=O)(O)[O][Pt]2([NH][C@@H]3CCCC[C@H]3[NH]2)[O]1 (stereo partly drawn) [(R,R)-pyrodach-2, (R,R)-trans-1,2-cyclohexanediamine-(dihydrogenpyrophosphato)platinum(II)]
1 month
  Potency (Assay): 98.9%
  Purity (% Area): 97.44%
  Unknown Impurities RRT~0.29: 0.16%
  Unknown Impurities RRT~0.42: 0.21%
  Unknown Impurities RRT~0.49: 0.75%
  Unknown Impurities RRT~0.59: 0.15%
  Unknown Impurities RRT~0.73: 1.03%
  Unknown Impurities RRT~1.82: ND (ND = Not Detected, or <0.05%)
  Unknown Impurities RRT~2.85: ND (ND = Not Detected, or <0.05%)
  Unknown Impurities RRT~3.00: ND (ND = Not Detected, or <0.05%)
  Unknown Impurities RRT~3.15: ND (ND = Not Detected, or <0.05%)
  Unknown Impurities RRT~3.30: ND (ND = Not Detected, or <0.05%)
  Unknown Impurities RRT~3.45: ND (ND = Not Detected, or <0.05%)
  Unknown Impurities RRT~3.74: 0.08%
  Unknown Impurities RRT~4.27: ND (ND = Not Detected, or <0.05%)
  Unknown Impurities RRT~4.99: ND (ND = Not Detected, or <0.05%)
  pH: 8.68
1 week
  Potency (Assay): 101.7%
  Purity (% Area): 97.74%
  Unknown Impurities RRT~0.29: 0.11%
  Unknown Impurities RRT~0.42: 0.05%
  Unknown Impurities RRT~0.49: 0.78%
  Unknown Impurities RRT~0.59: 0.06%
  Unknown Impurities RRT~0.73: 1.12%
  Unknown Impurities RRT~1.82: ND (ND = Not Detected, or <0.05%)
  Unknown Impurities RRT~2.85: ND (ND = Not Detected, or <0.05%)
  Unknown Impurities RRT~3.00: ND (ND = Not Detected, or <0.05%)
  Unknown Impurities RRT~3.15: ND (ND = Not Detected, or <0.05%)
  Unknown Impurities RRT~3.30: ND (ND = Not Detected, or <0.05%)
  Unknown Impurities RRT~3.45: ND (ND = Not Detected, or <0.05%)
  Unknown Impurities RRT~3.74: ND (ND = Not Detected, or <0.05%)
  Unknown Impurities RRT~4.27: ND (ND = Not Detected, or <0.05%)
  Unknown Impurities RRT~4.99: ND (ND = Not Detected, or <0.05%)
  pH: 8.57
2 month
  Potency (Assay): 100.4%
  Purity (% Area): 96.45%
  Unknown Impurities RRT~0.29: 0.19%
  Unknown Impurities RRT~0.42: 0.56%
  Unknown Impurities RRT~0.49: 0.79%
  Unknown Impurities RRT~0.59: 0.26%
  Unknown Impurities RRT~0.73: 0.97%
  Unknown Impurities RRT~1.82: ND (ND = Not Detected, or <0.05%)
  Unknown Impurities RRT~2.85: 0.12%
  Unknown Impurities RRT~3.00: ND (ND = Not Detected, or <0.05%)
  Unknown Impurities RRT~3.15: ND (ND = Not Detected, or <0.05%)
  Unknown Impurities RRT~3.30: ND (ND = Not Detected, or <0.05%)
  Unknown Impurities RRT~3.45: 0.05%
  Unknown Impurities RRT~3.74: 0.31%
  Unknown Impurities RRT~4.27: ND (ND = Not Detected, or <0.05%)
  Unknown Impurities RRT~4.99: 0.07%
  pH: 8.73
2 week
  Potency (Assay): 99.9%
  Purity (% Area): 97.77%
  Unknown Impurities RRT~0.29: 0.12%
  Unknown Impurities RRT~0.42: 0.10%
  Unknown Impurities RRT~0.49: 0.77%
  Unknown Impurities RRT~0.59: ND (ND = Not Detected, or <0.05%)
  Unknown Impurities RRT~0.73: 1.17%
  Unknown Impurities RRT~1.82: ND (ND = Not Detected, or <0.05%)
  Unknown Impurities RRT~2.85: ND (ND = Not Detected, or <0.05%)
  Unknown Impurities RRT~3.00: ND (ND = Not Detected, or <0.05%)
  Unknown Impurities RRT~3.15: ND (ND = Not Detected, or <0.05%)
  Unknown Impurities RRT~3.30: ND (ND = Not Detected, or <0.05%)
  Unknown Impurities RRT~3.45: ND (ND = Not Detected, or <0.05%)
  Unknown Impurities RRT~3.74: ND (ND = Not Detected, or <0.05%)
  Unknown Impurities RRT~4.27: ND (ND = Not Detected, or <0.05%)
  Unknown Impurities RRT~4.99: ND (ND = Not Detected, or <0.05%)
  pH: 8.64
3 month
  Potency (Assay): 101.6%
  Purity (% Area): 96.08%
  Unknown Impurities RRT~0.29: 0.27%
  Unknown Impurities RRT~0.42: 0.76%
  Unknown Impurities RRT~0.49: 0.78%
  Unknown Impurities RRT~0.59: 0.25%
  Unknown Impurities RRT~0.73: 0.92%
  Unknown Impurities RRT~1.82: ND (ND = Not Detected, or <0.05%)
  Unknown Impurities RRT~2.85: 0.17%
  Unknown Impurities RRT~3.00: ND (ND = Not Detected, or <0.05%)
  Unknown Impurities RRT~3.15: ND (ND = Not Detected, or <0.05%)
  Unknown Impurities RRT~3.30: ND (ND = Not Detected, or <0.05%)
  Unknown Impurities RRT~3.45: ND (ND = Not Detected, or <0.05%)
  Unknown Impurities RRT~3.74: 0.40%
  Unknown Impurities RRT~4.27: 0.06%
  Unknown Impurities RRT~4.99: 0.14%
  pH: 9.01
3 week
  Potency (Assay): 100.3%
  Purity (% Area): 97.33%
  Unknown Impurities RRT~0.29: 0.16%
  Unknown Impurities RRT~0.42: 0.15%
  Unknown Impurities RRT~0.49: 0.76%
  Unknown Impurities RRT~0.59: 0.12%
  Unknown Impurities RRT~0.73: 1.26%
  Unknown Impurities RRT~1.82: ND (ND = Not Detected, or <0.05%)
  Unknown Impurities RRT~2.85: ND (ND = Not Detected, or <0.05%)
  Unknown Impurities RRT~3.00: ND (ND = Not Detected, or <0.05%)
  Unknown Impurities RRT~3.15: ND (ND = Not Detected, or <0.05%)
  Unknown Impurities RRT~3.30: ND (ND = Not Detected, or <0.05%)
  Unknown Impurities RRT~3.45: ND (ND = Not Detected, or <0.05%)
  Unknown Impurities RRT~3.74: 0.06%
  Unknown Impurities RRT~4.27: ND (ND = Not Detected, or <0.05%)
  Unknown Impurities RRT~4.99: ND (ND = Not Detected, or <0.05%)
  pH: 8.67
4 month
  Potency (Assay): 103.0%
  Purity (% Area): 95.98%
  Unknown Impurities RRT~0.29: 0.16%
  Unknown Impurities RRT~0.42: 0.96%
  Unknown Impurities RRT~0.49: 0.94%
  Unknown Impurities RRT~0.59: 0.17%
  Unknown Impurities RRT~0.73: 0.73%
  Unknown Impurities RRT~1.82: ND (ND = Not Detected, or <0.05%)
  Unknown Impurities RRT~2.85: 0.17%
  Unknown Impurities RRT~3.00: ND (ND = Not Detected, or <0.05%)
  Unknown Impurities RRT~3.15: ND (ND = Not Detected, or <0.05%)
  Unknown Impurities RRT~3.30: ND (ND = Not Detected, or <0.05%)
  Unknown Impurities RRT~3.45: ND (ND = Not Detected, or <0.05%)
  Unknown Impurities RRT~3.74: 0.58%
  Unknown Impurities RRT~4.27: 0.06%
  Unknown Impurities RRT~4.99: 0.20%
  pH: 8.90
6 month
  Potency (Assay): 99.2%
  Purity (% Area): 95.03%
  Unknown Impurities RRT~0.29: 0.22%
  Unknown Impurities RRT~0.42: 1.29%
  Unknown Impurities RRT~0.49: 0.80%
  Unknown Impurities RRT~0.59: 0.32%
  Unknown Impurities RRT~0.73: 0.82%
  Unknown Impurities RRT~1.82: ND (ND = Not Detected, or <0.05%)
  Unknown Impurities RRT~2.85: 0.15%
  Unknown Impurities RRT~3.00: 0.07%
  Unknown Impurities RRT~3.15: ND (ND = Not Detected, or <0.05%)
  Unknown Impurities RRT~3.30: 0.05%
  Unknown Impurities RRT~3.45: ND (ND = Not Detected, or <0.05%)
  Unknown Impurities RRT~3.74: 0.69%
  Unknown Impurities RRT~4.27: 0.08%
  Unknown Impurities RRT~4.99: 0.36%
  pH: 8.93
9 month
  Potency (Assay): 100.3%
  Purity (% Area): 93.82%
  Unknown Impurities RRT~0.29: 0.15%
  Unknown Impurities RRT~0.42: 1.88%
  Unknown Impurities RRT~0.49: 0.84%
  Unknown Impurities RRT~0.59: 0.32%
  Unknown Impurities RRT~0.73: 0.43%
  Unknown Impurities RRT~1.82: 0.05%
  Unknown Impurities RRT~2.85: 0.32%
  Unknown Impurities RRT~3.00: ND (ND = Not Detected, or <0.05%)
  Unknown Impurities RRT~3.15: 0.07%
  Unknown Impurities RRT~3.30: 0.10%
  Unknown Impurities RRT~3.45: 0.06%
  Unknown Impurities RRT~3.74: 0.88%
  Unknown Impurities RRT~4.27: 0.13%
  Unknown Impurities RRT~4.99: 0.66%
  pH: 9.08
12 month
  Potency (Assay): 98.4%
  Purity (% Area): 92.23%
  Unknown Impurities RRT~0.29: 0.14%
  Unknown Impurities RRT~0.42: 2.20%
  Unknown Impurities RRT~0.49: 0.86%
  Unknown Impurities RRT~0.59: 0.32%
  Unknown Impurities RRT~0.73: 0.97%
  Unknown Impurities RRT~1.82: 0.06%
  Unknown Impurities RRT~2.85: 0.37%
  Unknown Impurities RRT~3.00: 0.06%
  Unknown Impurities RRT~3.15: 0.06%
  Unknown Impurities RRT~3.30: 0.12%
  Unknown Impurities RRT~3.45: 0.05%
  Unknown Impurities RRT~3.74: 1.07%
  Unknown Impurities RRT~4.27: 0.15%
  Unknown Impurities RRT~4.99: 1.02%
  pH: 9.07
Initial
  Potency (Assay): 100.3%
  Purity (% Area): 98.04%
  Unknown Impurities RRT~0.29: 0.11%
  Unknown Impurities RRT~0.42: ND (ND = Not Detected, or <0.05%)
  Unknown Impurities RRT~0.49: 0.62%
  Unknown Impurities RRT~0.59: ND (ND = Not Detected, or <0.05%)
  Unknown Impurities RRT~0.73: 1.05%
  Unknown Impurities RRT~1.82: ND (ND = Not Detected, or <0.05%)
  Unknown Impurities RRT~2.85: ND (ND = Not Detected, or <0.05%)
  Unknown Impurities RRT~3.00: ND (ND = Not Detected, or <0.05%)
  Unknown Impurities RRT~3.15: ND (ND = Not Detected, or <0.05%)
  Unknown Impurities RRT~3.30: ND (ND = Not Detected, or <0.05%)
  Unknown Impurities RRT~3.45: ND (ND = Not Detected, or <0.05%)
  Unknown Impurities RRT~3.74: ND (ND = Not Detected, or <0.05%)
  Unknown Impurities RRT~4.27: ND (ND = Not Detected, or <0.05%)
  Unknown Impurities RRT~4.99: ND (ND = Not Detected, or <0.05%)
  pH: 8.60
